Assay results published in patent publication US9279803B2, “Method of identifying patients not suitable for high-dose cyclophosphamide treatment” (The Johns Hopkins University, priority 2006, dated 2016).

System: white blood cell count (WBC)
Settings: preliminary results
Protocol: Additionally, ALDH levels in the target peripheral lymphocytes of high-dose cyclophosphamide treatment may render those cells resistant to cyclophosphamide and can lead to worsened clinical outcome or disease relapse. In a series of multiple sclerosis (MS) patients, blood was analyzed to determine the relative levels of aldehyde dehydrogenease. The banked blood was obtained from MS patients prior to treatment with high-dose cyclophosphamide.

## O=P1(N(CCCl)CCCl)NCCCO1 (centres unmarked) [cyclophosphamide]
MS patient who did not respond and relapsed, higher ALDH activity in banked blood
  nadir WBC following high-dose cyclophosphamide treatment: 24
MS patient who responded, much lower ALDH activity in banked blood
  WBC reached following high-dose cyclophosphamide treatment: 0
